Where “and” joins values, the source holds several entries; their conditions need not be identical. Equal entries are not always repeated.
Assays:
[1] = tested on: Jurkat cells; test: MTS cell viability assay, Jurkat; format: cell-based, human; conditions: Homo sapiens, Jurkat, 72 hours, read-out: IC50 (± S.D.), Jurkat
Procedure: Cryopreserved tumor cells obtained from sterile lymph node biopsy samples from dogs with diffuse large B cell lymphoma (DLBCL) were cultured with 100 ng/mL of megaCD40L (Enzo Life Science, Plymouth Meeting, PA) as previously described, [27]. The human T-cell leukemia cell line, Jurkat, was from the American Type Culture Collection (ATCC, Manassas, VA) and cultured in RPMI1640 medium (Gibco/BRL, Grand Island, NY) containing 10% fetal bovine serum (FBS; Atlas Biologicals, Fort Collins, CO), 2-mercaptoethanol (Gibco/BRL), HEPES, L-glutamine, sodium pyruvate (Mediatech Inc., Manassas, VA), non-essential amino acids (Sigma Aldrich, St. Louis, MO), and Primocin (Invivogen, San Diego, CA). The canine DLBCL cell line CLBL1 obtained from Dr. Barbara Rütgen (University of Vienna, Austria), [29] and human DLBCL cell lines OCI-Ly3 [30], [31] and OCI-Ly10 [32] obtained from Dr. Anne Novak (Mayo Clinic Cancer Center, Rochester, MN) were cultured in complete Iscove’s Modified Dulbecco’s medium (IMDM) containing 20% FBS, L-glutamine, and Primocin. All cells were maintained at 37°C in a humidified 5% CO2 atmosphere. The following additional canine tumor cell lines were used to evaluate response to SINE compounds: C2, mast cell tumor line provided by Dr. George Caughey, UCSF, San Francisco, CA [33]; OSA16, osteosarcoma cell line, provided by Dr. Jaime Modiano, UM, Minneapolis, MN [34]; and 323610-3, malignant melanoma cell line, provided by Dr. Michael Kent, UCD, Davis, CA [35]. […]
Cell viability for lymphoid lines was determined by the MTS (3-(4, 5-dimethylthiazol-2-yl)-5-(3-carboxymethoxyphenyl)-2-(4-sulfophenyl)-2H-tetrazolium) assay using CellTiter 96® AQueous One Solution Cell Proliferation Assay Kit (Promega, Madison, WI). […] After 72 hours, 20 µL of MTS solution was added to each well and cells were incubated for another 4 hours before measuring absorbance at 490 nm using a Wallac Victor 1420 Multilabel Counter (Perkin Elmer, Waltham, MA). The IC50 of SINE was calculated using Prism 6 software (GraphPad Software, Inc., La Jolla, CA).

[2] = Phase I dose escalation study, toxicity assessment; conditions: dog, in vivo, po; orally twice/week (Monday/Thursday), dogs with spontaneous cancer; read-out: maximum tolerated dose (MTD)
Procedure: (§1) This study was a Phase I dose escalating, open label assessment of the safety and biologic activity of KPT-335 in client owned dogs with spontaneous malignancies. Assessment of clinical toxicities and tumor response was performed at each visit. Dogs were evaluated for hematologic and biochemical toxicities every 7 days with routine bloodwork. The initial dose of 1 mg/kg orally twice per week (Monday/Thursday or Tuesday/Friday) was based on previous data from normal laboratory dogs (data not shown) and dose escalation was set at 0.25 mg/kg increments in cohorts of 3 until dose limiting toxicity (DLT) was identified. The DLT was considered to be any grade 3 or 4 hematologic or non-hematologic toxicity based on the established VCOG-CTCAE criteria. […] Disease progression or signs and symptoms definitely related to disease were not considered adverse events (AEs). The maximum tolerated dose (MTD) was considered to be one dose below that at which DLT occurred.
Each patient underwent a baseline complete history, physical examination, and pre-dose laboratory assessment that included a complete blood count (CBC), serum biochemistry profile, coagulation parameters (PT/PTT) and urinalysis. Patients were assessed for adverse events on days 7, 14, 21, and 28, and every 2 weeks thereafter at which time all laboratory assessments were repeated. […]

[3] = tested on: dogs with spontaneous cancer (NHL, mast cell tumor, osteosarcoma); test: Phase I dose escalation study, tumor response; format: in vivo
Procedure: as §1
Tumor assessments were completed prior to study entry, and days 7, 14, 21, and 28. For dogs that continued beyond 4 weeks, response assessments were performed every 2 weeks thereafter, or at the time of suspected tumor progression. Responses were assessed by the investigator according to pre-defined protocol criteria. The response in dogs with assessable disease was performed by clinical examination, ultrasonography, or thoracic radiography. Many lesions were not amenable for quantitative radiographic imaging, but were followed either by serial clinical examination (superficial lesions; palpable lymph nodes) or by ultrasonography (abdominal lymph nodes). Thoracic lesions were assessed by thoracic radiography.
The response in dogs with measurable disease was judged by the investigator on the basis of Response Evaluation Criteria for Peripheral Nodal Lymphoma in dogs (v1.0). A complete response (CR) was defined as disappearance of all disease on two measurements separated by a minimum period of 3 weeks. A partial response (PR) was defined as greater than 30% reduction in the sum of the longest diameter of the target lesions documented by two assessments separated by at least 3 weeks. An increase of >20% in the size of all measurable tumor areas as measured by the sum of longest diameters of the target lesions taken as reference the smallest sum since initiation of therapy, or the appearance of any new lesion(s) would qualify as progressive disease (PD). […] Dogs who had no evidence of tumor progression and who had not experienced any unacceptable toxicity were eligible for extended treatment cycles. Dose escalation from twice per week administration to three times per week administration in an individual dog was permitted if the dog was tolerating therapy.

[4] = Tolerability in normal laboratory dogs (data not shown); conditions: dog, in vivo

Question: Which IC50 [1] does the source give for `O=C(/C=C\n1cnc(-c2cc(C(F)(F)F)cc(C(F)(F)F)c2)n1)NNc1ccccn1` [KPT-335] here?
Answer: Its IC50 is 0.3 nM.

Question: What about the MTD [2] of the same compound?
Answer: Its MTD is 1.75 mg/kg.

Question: And the “clinical benefit (CB: PR or SD >4 weeks), dogs with NHL” value [3]?
Answer: The value was 9/14.

Question: What about the “clinical benefit, dogs with NHL” value [3] of the same compound?
Answer: The value was 64%.

Question: What about the “duration of PR, individual dogs” value [3] of the same compound?
Answer: The value was 71 days and 246 days.

Question: What about the “median TTP, responding dogs with NHL” value [3] of the same compound?
Answer: Its value is 66 days.

Question: What about the “median duration of treatment, dogs with NHL” value [3] of the same compound?
Answer: The value was 10 weeks.

Question: And the “range of duration of treatment, dogs with NHL” value [3]?
Answer: The value was 5–35 weeks.

Question: And the “median duration of SD” value ([3]; 8 dogs with SD)?
Answer: The value was 58.5 days.

Question: What about the “range of duration of SD” value ([3]; 8 dogs with SD) of the same compound?
Answer: Its value is 28 to 84 days.

Question: What about the “TTP range, all dogs” value ([3]; 17 dogs) of the same compound?
Answer: Its value is 14 to 246 days.

Question: What about the “dogs with PD in the first 4 weeks of therapy” value ([3]; 17 dogs) of the same compound?
Answer: Its value is 7.

Question: And the “median TTP, all dogs” value ([3]; 17 dogs)?
Answer: Its value is 35 days.

Question: And the “stable disease (SD), number of dogs with NHL” value ([3]; SD for greater than 28 days)?
Answer: Its value is 7.

Question: And the “stable disease (SD), number of dogs” value ([3]; all 17 dogs)?
Answer: Its value is 8.

Question: What about the “dose at which biologic activity was observed” value ([3]; lowest dose level) of the same compound?
Answer: The value was 1 mg/kg.

Question: And the MTD [4]?
Answer: The MTD was 2 mg/kg.

From paper PMC3913620, “Preclinical Evaluation of the Novel, Orally Bioavailable Selective Inhibitor of Nuclear Export (SINE) KPT-335 in Spontaneous Canine Cancer: Results of a Phase I Study” (PLoS ONE, 2014)
